Seven compounds from patent publication US20250296939A1, “BENZOTHIOPHENE COMPOUND” (Kyoto Pharmaceutical Industries, Ltd., priority 2022, published 2025) can be followed below.

pIC50: −log10 of the molar value.

For assay [1], the system named is NQO1 activity in rat kidney. The experiment in a line: NQO1 activity assay in rat kidney (single administration). The assay is classed as in vivo. Conditions: SD rats (male), oral 3 mg/kg single administration; for NQO1 activity 24 hr later: 24 hr after administration; for NQO1 activity 48 hr later: 48 hr after administration. As for the experimental part:
Experimental Example 3: NQO1 Activity Assay in Rat Kidney (Single Administration)
The test compound solution for administration was prepared by dissolving or suspending the test compound in 0.5 w/v % methylcellulose solution.
The test compound was administered orally (3 mg/kg, 2 mL/kg) to SD rats (male, Japan SLC). The solvent group was used as a control group. The test compound group was anesthetized with isoflurane 24 and 48 hr after administration, and the control group was anesthetized with isoflurane 24 hr after administration, and the rats were euthanized by abdominal aortotomy with blood release. The right kidney was immediately removed, and the renal cortex and medullary portion of the kidney were cut out for measurement of NQO1 activity.
Homogenization buffer (10 mM Tris-HCl, 250 mM sucrose, pH 7.4) and assay buffer (25 mM Tris-HCl, 0.7 mg/mL BSA, pH 7.4) were prepared.
1 mL of homogenization buffer was added to the collected kidney samples, and the organs were homogenized uniformly in ice using a Polytron homogenizer (PHYSCOTRON, Microtec Co. Ltd.) or TissueLyser II (QIAGEN). Homogenized samples were centrifuged (MX-305, TOMY) at 9000×g for 20 minutes at 4° C. The supernatant was then scalped with homogenization buffer to approximately 2 ml and ultracentrifuged (centrifuge; OptimaL-100XP, rotor; 50.4 Ti, Beckman Coulter) at 100,000×g for 60 min at 4° C. The protein concentration of the supernatant was measured with the Protein Assay BCA kit (#06385-00, Nacalai Tesque), and samples were diluted to 5 μg protein/30 μL with homogenization buffer. 2,6-Dichlorophenolindophenol (DCPIP) reaction buffer (assay buffer with 200 μM NADPH and 160 μM DCPIP, containing 1/1000 volume of DMSO or 20 μM dicoumarol DMSO solution) was prepared immediately before the measurement.
The 230 μL of each concentration of calibration solution was added to a 96-well plate (CORNING, 9017). To 30 μL of the sample solution was added 200 μL of DMSO-containing DCPIP reaction buffer or dicoumarol-containing DCPIP reaction buffer. The absorbance at 600 nm was immediately measured on a SpectraMax PLUS384 (Molecular devices) at 1 minute intervals for 10 minutes. […] A regression line was used to create the calibration curve.
The difference between the DCPIP decrease in the wells with DMSO-containing DCPIP reaction buffer and the DCPIP decrease in the wells with dicoumarol-containing DCPIP reaction buffer was divided by the amount of protein (mg) and time (min) to obtain NQO1 activity (nmol/mg/min). In Table 4 below, the NQO1 activity of the test compound-administered groups is expressed as a percentage of the control group.

The target in assay [2] is GST-fused human Keap1 (amino acid residues: 325-642) protein (Homo sapiens (Human), UniProt Q14145). As to the kind of experiment: FP assay (in vitro): inhibition of binding between Nrf2 and Keap1 by fluorescence polarization. The note with it: 20 nM GST-fused human Keap1, 10 nM FITC-labeled Nrf2 peptide, 2 hr at room temperature. Background: Fluorescence polarisation rises when a labelled molecule tumbles more slowly, as on binding a larger partner.
GST-fused human Keap1 (amino acid residues: 325-642) protein, sequence (Q14145 325-624 limits assumed): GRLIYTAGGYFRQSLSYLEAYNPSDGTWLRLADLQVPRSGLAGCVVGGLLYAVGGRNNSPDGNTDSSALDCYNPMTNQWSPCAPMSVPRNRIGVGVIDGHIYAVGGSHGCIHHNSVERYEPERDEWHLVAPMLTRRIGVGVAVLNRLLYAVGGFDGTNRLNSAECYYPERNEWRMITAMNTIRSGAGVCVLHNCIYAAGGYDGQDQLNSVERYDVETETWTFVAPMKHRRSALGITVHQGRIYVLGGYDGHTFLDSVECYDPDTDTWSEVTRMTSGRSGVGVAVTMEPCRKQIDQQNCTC

Assay [3] has as its system NQO1 activity in Hepa1c1c7 cells. The experiment in a line: NAD(P)H: quinone oxidoreductase-1 (NQO1) enzyme induction assay (in vitro). The note with it: Mus musculus, Hepa-1c1c7, NQO1 activity upon addition of 400 nM of test compound, about 48 hr, ratio from the base without the compound. Type of assay: cell-based, mouse. In outline:
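Mouse Hepa1c1c7 hepatoma cells were treated with 400 nM compound for about 48 h, then lysed with digitonin/EDTA. NQO1 activity was measured as menadione-mediated MTT reduction with a G6P/G6PDH NADPH-regenerating system, stopped with dicoumarol, and read at A610. Values are the activity ratio versus untreated base wells.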

With `Cc1c([C@H](CC(=O)O)c2cc(CN3Cc4nc(O)ccc4O[C@H](C4CC4)C3)c3sccc3c2)ccc2c1nnn2C` [Example 5, (3R)-3-(7-{[(2R)-2-Cyclopropyl-7-hydroxy-2,3-dihydropyrido[2,3-f][1,4]oxazepin-4(5H)-yl]methyl}-1-benzothiophen-5-yl)-3-(1,4-dimethyl-1H-benzotriazol-5-yl)propanoic acid], in assay [1], the “NQO1 activity 24 hr later” value is 9.4 percentage of the control group and the “NQO1 activity 48 hr later” value is 10.9 percentage of the control group. Also, the pIC50 in assay [2] was 7.52 to 8.00. Further, the fold induction at 0.4 µM in assay [3] is more than 5.

Consider `CC[C@@H]1CN(Cc2cc([C@@H](c3ccc4c(nnn4C)c3C)C(C)(C)C(=O)O)cc3ccsc23)Cc2nc(O)ccc2O1` [Example 11, (3S)-3-(1,4-Dimethyl-1H-benzotriazol-5-yl)-3-(7-{[(2R)-2-ethyl-7-hydroxy-2,3-dihydropyrido[2,3-f][1,4]oxazepin-4(5H)-yl]methyl}-1-benzothiophen-5-yl)-2,2-dimethylpropanoic acid], for which, in assay [1], the “NQO1 activity 24 hr later” value was 9.3 percentage of the control group and the “NQO1 activity 48 hr later” value is listed as 11.0 percentage of the control group. This compound also showed a pIC50 in assay [2] not below 8.00. Besides, the fold induction at 0.4 µM in assay [3] was more than 5.

`Cc1c([C@H](c2cc(CN3Cc4nc(O)ccc4OC4(CC4)C3)c3sccc3c2)C(C)(C)C(=O)O)ccc2c1nnn2C` [Example 13, (3S)-3-(1,4-Dimethyl-1H-benzotriazol-5-yl)-3-{7-[(7′-hydroxy-3′H-spiro[cyclopropane-1,2′-pyrido[2,3-f][1,4]oxazepin]-4′(5′H)-yl)methyl]-1-benzothiophen-5-yl}-2,2-dimethylpropanoic acid]: in assay [1], the “NQO1 activity 24 hr later” value is 6.5 percentage of the control group and the “NQO1 activity 48 hr later” value was 11.7 percentage of the control group. The pIC50 in assay [2] was 7.52 to 8.00. For the same compound, in assay [3], the fold induction at 0.4 µM was more than 5.

For `CC[C@H]1Cc2ccc(O)nc2CN(Cc2cc([C@H](CC(=O)O)c3cc(C)c4c(nnn4C)c3C)cc3ccsc23)C1` [Example 86, (3S)-3-(7-{[(6S)-6-Ethyl-2-hydroxy-5,6,7,9-tetrahydro-8H-pyrido[2,3-c]azepin-8-yl]methyl}-1-benzothiophen-5-yl)-3-(1,4,7-trimethyl-1H-benzotriazol-5-yl)propanoic acid], the pIC50 in assay [2] is not below 8.00. The fold induction at 0.4 µM in assay [3] is more than 5.

In assay [2], `CC[C@H]1Cc2ccc(O)nc2CN(Cc2cc([C@@H](CC(=O)O)c3cc(C)c4c(nnn4C)c3C)cc3ccsc23)C1` [Example 87, (3R)-3-(7-{[(6S)-6-Ethyl-2-hydroxy-5,6,7,9-tetrahydro-8H-pyrido[2,3-c]azepin-8-yl]methyl}-1-benzothiophen-5-yl)-3-(1,4,7-trimethyl-1H-benzotriazol-5-yl)propanoic acid] gave a pIC50 not below 8.00. The fold induction at 0.4 µM in assay [3] is more than 5.

Regarding `CC[C@@H]1CN(Cc2cc(C(CC(=O)O)c3ccc4c(nnn4CC)c3C)cc3ccsc23)Cc2nc(C)ccc2O1` (stereo partly drawn) [Example 92, 3-(1-Ethyl-4-methyl-1H-benzotriazol-5-yl)-3-(7-{[(2R)-2-ethyl-7-methyl-2,3-dihydropyrido[2,3-f][1,4]oxazepin-4(5H)-yl]methyl}-1-benzothiophen-5-yl)propanoic acid], the pIC50 in assay [2] was 6.52 to 7.52. The fold induction at 0.4 µM in assay [3] was more than 5.

Take `CC[C@@H]1CN(Cc2cc(C(CC(=O)O)c3ccc4c(nnn4C)c3C)cc3ccsc23)Cc2nc(C(F)(F)F)ccc2O1` (stereo partly drawn) [Example 93, 3-(1,4-Dimethyl-1H-benzotriazol-5-yl)-3-(7-{[(2R)-2-ethyl-7-(trifluoromethyl)-2,3-dihydropyrido[2,3-f][1,4]oxazepin-4(5H)-yl]methyl}-1-benzothiophen-5-yl)propanoic acid]: the pIC50 in assay [2] is not below 8.00. Moreover, the fold induction at 0.4 µM in assay [3] was more than 5.

In general, pIC50 refers to the IC50 on a negative log10 scale, so that one unit is a factor of ten. Broadly, the fold induction is the ratio of treated to control signal.
